Experimental data reported in patent publication US20160102317A1, “PLANTS HAVING INCREASED TOLERANCE TO HERBICIDES” (BASF SE, priority 2013, published 2016).

Target: T1, Arabidopsis HPPD (SEQ ID NO:53), wild-type (Arabidopsis thaliana, UniProt P93836)
T1 construct: His6 (N); made in house; host or cells: E. coli BL21 (DE3)
T1 sequence (P93836 1-445): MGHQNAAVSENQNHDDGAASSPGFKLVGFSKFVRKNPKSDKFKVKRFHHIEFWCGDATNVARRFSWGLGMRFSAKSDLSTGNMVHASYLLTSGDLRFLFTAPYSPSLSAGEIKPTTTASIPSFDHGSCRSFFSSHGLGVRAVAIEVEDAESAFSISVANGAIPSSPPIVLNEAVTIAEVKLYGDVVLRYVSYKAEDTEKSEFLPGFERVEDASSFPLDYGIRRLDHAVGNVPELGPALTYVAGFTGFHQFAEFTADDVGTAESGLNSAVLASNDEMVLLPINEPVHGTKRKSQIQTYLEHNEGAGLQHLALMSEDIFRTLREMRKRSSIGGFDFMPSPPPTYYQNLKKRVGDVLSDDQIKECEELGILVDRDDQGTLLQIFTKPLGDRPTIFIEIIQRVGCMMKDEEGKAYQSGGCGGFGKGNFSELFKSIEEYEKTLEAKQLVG
Assay: HPPD activity assay (HGA by HPLC), wild-type enzyme characterization
Type: biochemical
Protocol: HPPD produces homogentisic acid and CO2 from 4-hydroxyphenylpyruvate (4-HPP) and 02. The activity assay for HPPD is based on the analysis of homogentisic acid by reversed phase HPLC. The assay mixture can contain 150 mM potassium phosphate buffer pH 7.0, 50 mM L-ascorbic acid, 100 μM Catalase (Sigma-Aldrich), 1 μM FeSO4 and 0.2 units of purified HPPD enzyme in a total volume of 505 μl. 1 unit is defined as the amount of enzyme that is required to produce 1 nmol of HGA per minute at 20° C.
After a preincubation of 30 min the reaction is started by adding 4-HPP to a final concentration of 0.05 mM. The reaction is allowed to proceed for 45 min at room temperature. The reaction is stopped by the addition of 50 μl of 4.5 M phosphoric acid. The sample is filtered using a […] pore size PVDF filtration device.
5 μl of the cleared sample is analyzed on an UPLC HSS T3 column (particle size 1.8 μm, dimensions 2.1×50 mm; Waters) by isocratic elution using 90% 20 mM NaH2PO4 pH 2.2, 10% methanol (v/v).
HGA is detected electrochemically at 750 mV (mode: DC; polarity: positive) and quantified by integrating peak areas (Empower software; Waters).
Inhibitors are dissolved in DMSO (dimethylsulfoxide) to a concentration of 0.5 mM. From this stock solution serial five-fold dilutions are prepared in DMSO, which are used in the assay. The respective inhibitor solution accounts for 1% of the assay volume. […] Activities are normalized by setting the uninhibited enzyme activity to 100%. IC50 values are calculated using non-linear regression.
Using methods which are described in the above examples or well known in the art, purified, recombinant wild-type HPPD enzymes are characterized with respect to their kinetic properties and sensitivity towards HPPD inhibiting herbicides. Apparent michaelis constants (Km) and maximal reaction velocities (Vmax) are calculated by non-linear regression with the software GraphPad Prism 5 (GraphPad Software, La Jolla, USA) using a substrate inhibition model. […] Weighted means (by standard error) of Km and IC50 values are calculated from at least three independent experiments.
Field performance of the HPPD enzyme, which is used as a herbicide tolerance trait, may depend not only on its lack of sensitivity towards HPPD inhibiting herbicides but also on its activity. To assess the potential performance of a herbicide tolerance trait a tolerance index (TI) is calculated using the following formula: […]
Easy comparison and ranking of each trait is enabled by normalizing tolerance indexes on Arabidopsis wild-type HPPD.

COc1no[nH]/c1=N/C(=O)c1ccc2c(c1Cl)S(=O)(=O)CCC2(C)C [Inhibitor 1, (NE)-8-chloro-N-(4-methoxy-1,2,5-oxadiazol-3-ylidene)-4,4-dimethyl-1,1-dioxo-2,3-dihydrothiochromene-7-carboxamide]
Ki: 19 nM
TI Inhibitor 1 (normalized tolerance index) (Table 12, Arabidopsis HPPD, normalized to reference SEQ ID NO:53): 1
TI Inhibitor 1 (normalized tolerance index) (Table 15, Arabidopsis HPPD variant Wild-type): 1
